Test systems include CCRF-CEM; HL-60; HOP-92; HT-29; KM12; M14; M19-MEL; Malme-3M; OVCAR-8; SF-539; SK-MEL-28; SK-MEL-2; SK-MEL-5; SNB-19; UACC-62; BT-549; DU-145; Hs-578T; MCF7; MDA-MB-231.
Experiment in all cases: inhibition of tumour cell growth, NCI panel, 48 h

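These data come from cells grown in 96-well plates and exposed to compound for 48 hours at five concentrations. Here, GI50 denotes the concentration required for 50% inhibition of growth.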 Active and inactive are the calls of the source. Cut-off read from the data, not from the text of the source: active = GI50 up to about 1.1 µM and inactive = higher.

With `C#CCN(Cc1ccc2nc(-c3ccccc3)c(Cl)nc2c1)c1cc(OC)c(OC)c(OC)c1`, the GI50 in the assay on CCRF-CEM was 37.2 µM (inactive); in the assay with HL-60, 57.9 µM (inactive); in the assay with HOP-92 it was > 100 µM (inactive); in the assay with HT-29, > 100 µM (inactive); in the assay on KM12, > 100 µM (inactive); in the assay with M14, > 100 µM (inactive). The GI50 with M19-MEL, with Malme-3M, in the assay on OVCAR-8, in the assay with SF-539, in the assay on SK-MEL-28 and with SK-MEL-2 was > 100 µM (inactive) in each case. Further, the GI50 is 30.3 µM (inactive) in the assay with SK-MEL-5, > 100 µM (inactive) in the assay with SNB-19 and > 100 µM (inactive) in the assay with UACC-62.

In the case of `CN(C)CC(/C(Cc1ccccc1)=N\NC(=O)c1ccncc1)c1ccccc1` (stereo not given), the GI50 is 17.2 µM (inactive) with CCRF-CEM; 4.17 µM (inactive) in the assay with HL-60; 19.2 µM (inactive) in the assay on HOP-92; 41 µM (inactive) in the assay with HT-29; 25.5 µM (inactive) with M14; 30.1 µM (inactive) with M19-MEL. Moreover, the GI50 in the assay on Malme-3M is 28.8 µM (inactive); with OVCAR-8 it was 32.8 µM (inactive); in the assay on SF-539 it was 43.7 µM (inactive); in the assay with SK-MEL-28 it was 45.9 µM (inactive); in the assay with SK-MEL-2, 18.9 µM (inactive); in the assay on SK-MEL-5 it was 19 µM (inactive). Besides, the figures for the GI50 in the assay with SNB-19 and with UACC-62 were 39 µM (inactive) and 31 µM (inactive), respectively.

For `O=C1C=Cc2noc3cccc1c23`, the GI50 in the assay on CCRF-CEM was 0.412 µM (active); with HL-60, 1.05 µM (active); in the assay with HOP-92, 2.28 µM (inactive); with HT-29 it was 15.1 µM (inactive); with KM12 it was 4.85 µM (inactive); in the assay on M14 it was 9.08 µM (inactive). The GI50 is 3.18 µM (inactive) with M19-MEL; 12.3 µM (inactive) in the assay with Malme-3M; 2.88 µM (inactive) in the assay on OVCAR-8; 16.4 µM (inactive) in the assay on SF-539; 5.47 µM (inactive) in the assay on SK-MEL-28; 7.4 µM (inactive) with SK-MEL-2. For the same molecule, the GI50 is 10.5 µM (inactive) in the assay with SK-MEL-5, 17.5 µM (inactive) in the assay on SNB-19 and 3.06 µM (inactive) in the assay on UACC-62.

With `O=C(N[C@@H]1C=CCC[C@@H]1c1ccccc1)OCc1ccccc1`, the GI50 in the assay on CCRF-CEM is 16.4 µM (inactive); with HL-60, 11.6 µM (inactive); in the assay on HOP-92 it was 16.5 µM (inactive); with HT-29, 23.7 µM (inactive); in the assay with KM12 it was 17.5 µM (inactive); in the assay on M14, 17.9 µM (inactive). Besides, the GI50 was 21.5 µM (inactive) in the assay with M19-MEL; 19.3 µM (inactive) with Malme-3M; 20.1 µM (inactive) in the assay on OVCAR-8; 18.9 µM (inactive) with SF-539; 21.9 µM (inactive) in the assay with SK-MEL-28; 16.3 µM (inactive) in the assay on SK-MEL-2. Besides, the GI50 is 17.9 µM (inactive) in the assay with SK-MEL-5, 32.7 µM (inactive) with SNB-19 and 14.1 µM (inactive) in the assay on UACC-62.

As for `COc1cc(/C=C(\NC(=O)c2ccccc2)c2nc3cncnc3[nH]2)cc(OC)c1OC`, the GI50 was > 100 µM (inactive) in the assay with CCRF-CEM; > 100 µM (inactive) with HL-60; 88.1 µM (inactive) with HOP-92; > 100 µM (inactive) with HT-29; > 100 µM (inactive) with KM12; > 100 µM (inactive) with M14. In addition, the GI50 in the assay with M19-MEL, in the assay with Malme-3M, in the assay with OVCAR-8, with SF-539, with SK-MEL-28 and with SK-MEL-2 was > 100 µM (inactive) throughout. Also, the GI50 with SK-MEL-5, with SNB-19 and with UACC-62 was > 100 µM (inactive) each time.

As to `O=C(CC1=Nc2nnc(-c3nnc4n3C(=O)C(CC(=O)C3CC3)=N4)n2C1=O)C1CC1`, the GI50 in the assay on CCRF-CEM, in the assay on HL-60, in the assay on HOP-92, with HT-29, in the assay with KM12 and in the assay with M14 was > 100 µM (inactive) throughout. For the same molecule, the GI50 with M19-MEL, in the assay on Malme-3M, in the assay with SF-539, with SK-MEL-28, in the assay on SK-MEL-2 and in the assay on SK-MEL-5 was > 100 µM (inactive) each time. For the same molecule, the GI50 in the assay with SNB-19 and with UACC-62 was > 100 µM (inactive) throughout.

`CC(C)Cc1ccc(C(C)/C=C2\CCC(CN(C)C)C2=O)cc1` (stereo not given): the GI50 with BT-549 is 17.1 µM (inactive); with CCRF-CEM it was 3.92 µM (inactive); in the assay with DU-145 it was 11.4 µM (inactive); with HL-60 it was 5.61 µM (inactive); in the assay with HOP-92, 19 µM (inactive); in the assay with HT-29 it was 13.8 µM (inactive). The GI50 is 2.74 µM (inactive) with Hs-578T; 5.27 µM (inactive) in the assay with KM12; 12.9 µM (inactive) with M14; 17.6 µM (inactive) with M19-MEL; 4.43 µM (inactive) in the assay on MCF7; 2.28 µM (inactive) in the assay on MDA-MB-231. Further, the GI50 in the assay on Malme-3M is 17 µM (inactive); in the assay on OVCAR-8 it was 9.38 µM (inactive); in the assay with SF-539, 16.5 µM (inactive); with SK-MEL-28, 15.8 µM (inactive); in the assay with SK-MEL-2, 14.4 µM (inactive); with SK-MEL-5, 11.7 µM (inactive). Also, the results for the GI50 in the assay on SNB-19 and with UACC-62 were 12.4 µM (inactive) and 17.5 µM (inactive), respectively.

As to `O=C(CCc1ccccc1)On1nnc2ccccc2c1=O`, the GI50 with CCRF-CEM, in the assay with HL-60, in the assay on HOP-92, in the assay with HT-29, in the assay on KM12 and with M14 was > 100 µM (inactive) in each case. Moreover, the GI50 in the assay with M19-MEL, with Malme-3M, in the assay on OVCAR-8, in the assay on SF-539, with SK-MEL-2 and in the assay with SK-MEL-5 was > 100 µM (inactive) throughout. In addition, the GI50 with SNB-19 and with UACC-62 was > 100 µM (inactive) throughout.

In the case of `CC(=O)OCC(=O)[C@@]1(O)CC[C@H]2[C@@H]3C[C@H](C)C4=CC(=O)C=C[C@]4(C)[C@@]3(F)[C@@H](O)C[C@@]21C`, the GI50 was 5.33 µM (inactive) with CCRF-CEM; > 100 µM (inactive) in the assay with HL-60; > 100 µM (inactive) with HOP-92; > 100 µM (inactive) with HT-29; > 100 µM (inactive) in the assay with KM12; > 100 µM (inactive) in the assay on M14. Also, the GI50 with M19-MEL, in the assay with Malme-3M, with SF-539, in the assay on SK-MEL-28, in the assay on SK-MEL-2 and in the assay on SK-MEL-5 was > 100 µM (inactive) each time. Besides, the GI50 is > 100 µM (inactive) in the assay on SNB-19 and 80.4 µM (inactive) in the assay on UACC-62.

For `CCOC(=O)C(=O)C=P(c1ccccc1)(c1ccccc1)c1ccccc1`, the GI50 in the assay with CCRF-CEM, with HL-60, in the assay on HOP-92, with HT-29, in the assay with KM12 and with M14 was > 100 µM (inactive) each time. For the same molecule, the GI50 in the assay with M19-MEL, in the assay with Malme-3M, with OVCAR-8, in the assay on SF-539, in the assay on SK-MEL-28 and with SK-MEL-2 was > 100 µM (inactive) throughout. Moreover, the GI50 in the assay with SK-MEL-5, in the assay on SNB-19 and with UACC-62 was > 100 µM (inactive) each time.

On to `COC1C(OC(=O)/C=C/C=C/C=C/C=C\C(=O)O)CCC2(CO2)C1C1(C)OC1CC=C(C)C` (stereo not given), for which the GI50 in the assay with BT-549, in the assay on CCRF-CEM, with DU-145, with HOP-92, in the assay with HT-29 and with Hs-578T was > 100 µM (inactive) in each case. Besides, the GI50 was > 100 µM (inactive) in the assay on KM12; > 100 µM (inactive) in the assay on M14; > 100 µM (inactive) with M19-MEL; > 100 µM (inactive) with MCF7; > 100 µM (inactive) with MDA-MB-231; 131 µM (inactive) in the assay on Malme-3M. The GI50 with OVCAR-8, with SF-539, in the assay with SK-MEL-28, in the assay on SK-MEL-2, with SK-MEL-5 and in the assay on SNB-19 was > 100 µM (inactive) in each case. For the same molecule, the GI50 in the assay on UACC-62 was > 100 µM (inactive).

On to `COc1ccc(OC)c(N2CC(N)C2=O)c1` (stereo not given), for which the GI50 with CCRF-CEM, in the assay with HL-60, with HOP-92, with HT-29, in the assay with KM12 and with M14 was > 100 µM (inactive) each time. Also, the GI50 in the assay with M19-MEL, with Malme-3M, in the assay with OVCAR-8, in the assay on SF-539, in the assay on SK-MEL-28 and in the assay on SK-MEL-2 was > 100 µM (inactive) each time. The GI50 in the assay with SK-MEL-5, in the assay with SNB-19 and in the assay with UACC-62 was > 100 µM (inactive) in each case.

These data come from ChEMBL document CHEMBL1201862, “PubChem BioAssay data set” (2004).
